{
  "source": "BindingDB's records for doi:10.7270/Q2891498",
  "about": "(Nmmlsc, 2009)",
  "target": "T1, GTPase KRas [1-37] (Homo sapiens, UniProt G3V5T7)",
  "T1 construct": "1-37",
  "T1 sequence (G3V5T7 whole entry)": "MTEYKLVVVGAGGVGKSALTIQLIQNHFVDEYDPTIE",
  "test": "Ras wt fluorescent nucleotide binding blockade – biochemical, additional analogs, wildtype, multiplex flow cytometry, Ki, SAR follow-up (AID 2038)",
  "data": [
    {"smiles": "O=C1N=c2c(Br)cccc2=C1c1[nH]c2ccccc2c1NO", "note": "[7-bromanyl-3-[3-(oxidanylamino)-1H-indol-2-yl]indol-2-one]", "values": [
      {"measurement": "Ki", "result": 5.85, "unit": "µM"}
    ]}
  ]
}
